Read-outs that look alike come from different tables or passages of the source.
Molecular target: T1, avidin (AV) (Gallus gallus, UniProt P02701)
T1 construct: purchased Calbiochem (La Jolla, CA)
Test: Stopped-flow association kinetics of dye-labeled biotin probes binding to avidin (F(t), rF(t); Arrhenius plots/global fitting)
Set-up: ln(k) / dS+ / dG+ / Eon for BFl / b of the line y = m1x+b1: unit not given here
Conditions: for k(average): k (full value); for ΔG^ǂ / ΔS^ǂ: forward; for kcal/mol (from Arrhenius slope): the values are: Ea forward; for Temperature at which the rate constants of AV and SAV reacting with BcO are the same, x: crossing of the AV and SAV lines
Procedure: These reactions were carried out in a buffered solution of 10 mM Tris-HCl, 100 mM KCl, 2.5 mM MgCl2 and 1 mM CaCl2 at pH 8 and only AV-BcO reactions included pH 9 and 10. The concentrations, after mixing, were of 20 nM of dye-labeled B7 probe and 260 nM, 520 nM or 1040 nM of AV; and 200 nM, 300 nM, 400 nM or 800 nM of SAV at temperatures of 10, 15, 20 and 25°C. The deglycosylation of AV (for comparative association reactions) was carried out using the provided standard protocol with endoglycosidase H [47], both with and without incubation of a denaturant solution (2% SDS and 1M 2-mercaptoethanol).
The reactions were collected with the SF instrument, described previously. The fluorescence signal was collected through a 520 nm interference filter (Oriel Corp., Stratford, CT) with a detector time constant and SF dead time of 1 μs and 1 ms, respectively. The excitation light was provided by the Coherent Ar^+ ion laser (described above) at 488 nm with […] of incident power on the reaction cuvette. The laser source was followed by the photo-elastic modulator described above with the axis oriented 45^o with respect to the electric vector of the incident light and with the half-wave modulation (50 kHz) set for 488 nm excitation. The demodulation circuitry following the photomultiplier provided a DC(t) and a rectified AC(t) which were converted to digital data by a high-speed digitizer (PCI-5122) from National Instruments (Austin, TX) with 14-bit resolution and 100 MHz bandwidth, through channels 0 and 1. The data acquisition was controlled by LabVIEW (Vr 8) software at a collection rate of 6120 data points/second and stored in spreadsheets. The AC(t) and DC(t) data were baseline corrected before obtaining the signal ratio (Eq 4) as a function of time (ρt).
The constant AGain is the instrumental amplitude gain and was evaluated by solving ρ(t) using the known steady state anisotropy (rss) of the complexes which is equivalent to the r(t) at t = ∞; and H, obtained from the equivalent grating factor (G) for the filters and photo multiplier tubes in the SF. For the probes used in here G was 0.82 and H = (1-G)/(1+G) = 0.099. Knowing Again and H, the AC(t) and DC(t) signals can be solved for r(t) and F(t) (Eqs 4 and 5) and the normalized fluorescence, F¯(t) , and corrected fluorescence anisotropy, rF¯(t), were obtained when F¯(0) and rF¯(0) were scaled to 1 at t = 0.
The F¯(t) (Eq 6) is equivalent to (I||) + 2 (I⊥) and proportional to quantum yield (QYi), molar absorptivity (εi) and to the formation or disappearance of the emitting species Xi(t); and rF¯(t) including the steady state anisotropies (rss) of each fluorescent species (Eq 7).
The possible reaction models were discriminated by the squared residuals of the observed and calculated association traces of both fluorescence and anisotropy fluorescence signals, F¯(t) and rF¯(t) , respectively.

T1 sequence (P02701 25-152): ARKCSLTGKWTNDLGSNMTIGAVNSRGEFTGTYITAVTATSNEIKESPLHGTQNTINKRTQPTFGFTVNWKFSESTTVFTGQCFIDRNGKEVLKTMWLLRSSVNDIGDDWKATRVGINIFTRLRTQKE

In the case of NC(CCCCNC(=O)CCCC[C@@H]1SC[C@@H]2NC(=O)N[C@@H]21)C(=O)NCCCCCNC(=O)c1ccc(-c2c3cc(F)c(=O)cc-3oc3cc(O)c(F)cc23)c(C(=O)O)c1 (some centres unmarked) [BcO, Oregon green 488 Biocytin], the “k(average)” value (AV, pH 9, 20 (293.15 K)) is reported as 5.37E+06, the kon (AV, pH 9, 20 (293.15 K), k (scaled)) is reported as 5.4e+06 M⁻¹ s⁻¹ and the “ln(k)” value (AV, pH 9, 25 (298.15 K)) is reported as 15.9. The “k(average)” value (AV, pH 9, 25 (298.15 K)) was 7.85E+06, the kon (AV, pH 9, 25 (298.15 K), k (scaled)) was 7.9e+06 M⁻¹ s⁻¹ and the “ΔG^ǂ” value (AV, pH 9) was 4.7 ± 0.1 kcal/mol. For the same molecule, the “ΔS^ǂ” value (AV, pH 9) was 30.9 ± 2.5 cal/°K·mol, the “Ea^Forward” value (AV, pH 10) was 14.9 ± 0.7 kcal/mol and the ln(k) (AV, pH10, 10 (283.15 K)) was 14.5. The “k(average)” value (AV, pH10, 10 (283.15 K)) was 1.93E+06, the kon (AV, pH10, 10 (283.15 K), k (scaled)) was 1.9e+06 M⁻¹ s⁻¹ and the ln(k) (AV, pH10, 15 (288.15 K)) was 14.9. The “k(average)” value (AV, pH10, 15 (288.15 K)) was 2.97E+06, the kon (AV, pH10, 15 (288.15 K), k (scaled)) was 3e+06 M⁻¹ s⁻¹ and the ln(k) (AV, pH10, 20 (293.15 K)) was 15.4. For the same molecule, the “k(average)” value (AV, pH10, 20 (293.15 K)) was 4.75E+06, the kon (AV, pH10, 20 (293.15 K), k (scaled)) was 4.7e+06 M⁻¹ s⁻¹ and the ln(k) (AV, pH10, 25 (298.15 K)) was 15.8. For the same molecule, the “k(average)” value (AV, pH10, 25 (298.15 K)) was 7.23E+06, the kon (AV, pH10, 25 (298.15 K), k (scaled)) was 7.2e+06 M⁻¹ s⁻¹ and the “ΔG^ǂ” value (AV, pH 10) was 4.7 ± 0.3 kcal/mol. For the same molecule, the “ΔS^ǂ” value (AV, pH 10) was 34.1 ± 1.3 cal/°K·mol, the “slope (Arrhenius linear fit)” value (AV, ph8) was -7283 and the “slope (Arrhenius linear fit)” value (AV, ph9) was -6979.6. The kcal/mol (from Arrhenius slope) (AV, ph9) was 13.9 kcal/mol, the “slope (Arrhenius linear fit)” value (AV, ph10) was -7486 and the kcal/mol (from Arrhenius slope) (AV, ph10) was 14.9 kcal/mol. For the same molecule, the “Temperature at which the rate constants of AV and SAV reacting with BcO are the same, x” value was 52.1 °C, the “Temperature at which the rate constants of AV and SAV reacting with BcO are the same, x” value (x=(b1-b2)/(m2-m1) inverted) was 325.2 °K and the kon (pH 8, AV 260 nM, 10°C, pH 8, read-out: kon AV-BcO F¯(t)) was 2.4e+06 ± 100000 M⁻¹ s⁻¹. It also gave a kon (pH 8, AV 260 nM, 10°C, pH 8, read-out: kon AV-BcO r¯F(t)) of 2.7e+06 ± 100000 M⁻¹ s⁻¹, a kon (pH 8, AV 260 nM, 15°C, pH 8, read-out: kon AV-BcO F¯(t)) of 4.1e+06 ± 100000 M⁻¹ s⁻¹ and a kon (pH 8, AV 260 nM, 15°C, pH 8, read-out: kon AV-BcO r¯F(t)) of 4e+06 ± 100000 M⁻¹ s⁻¹. For the same molecule, the kon (pH 8, AV 260 nM, 20°C, pH 8, read-out: kon AV-BcO F¯(t)) was 5.7e+06 ± 100000 M⁻¹ s⁻¹, the kon (pH 8, AV 260 nM, 20°C, pH 8, read-out: kon AV-BcO r¯F(t)) was 5.9e+06 ± 100000 M⁻¹ s⁻¹ and the kon (pH 8, AV 260 nM, 25°C, pH 8, read-out: kon AV-BcO F¯(t)) was 9.5e+06 ± 100000 M⁻¹ s⁻¹. For the same molecule, the kon (pH 8, AV 260 nM, 25°C, pH 8, read-out: kon AV-BcO r¯F(t)) was 9.5e+06 ± 100000 M⁻¹ s⁻¹ and the kon (pH 8, AV 520 nM, 10°C, pH 8, read-out: kon AV-BcO F¯(t)) was 2.6e+06 ± 200000 M⁻¹ s⁻¹.

Reference: PMC6394990, “Detailed characterization of the solution kinetics and thermodynamics of biotin, biocytin and HABA binding to avidin and streptavidin” (PLoS ONE, 2019)
